In turn, `Cc1ccccc1Nc1nc2ccc(CC(=O)Nc3ccc(C4(CC(=O)O)CCCC4)cc3)cc2o1` [Example 1, (1-{4-[2-(2-o-Tolylamino-benzoxazol-6-yl)-acetylamino]-phenyl}-cyclopentyl)-acetic acid] returned a melting point of 123 to 126 °C.

Regarding `COc1cc(CC(=O)Nc2ccc(C3(CC(=O)O)CCCC3)cc2)ccc1NC(=O)Nc1ccccc1C` [Example 2, [1-{4-[2-[3-Methoxy-4-[3-o-tolyl-ureido]-phenyl]-acetylamino]-phenyl}-cyclopentyl]-acetic acid], the melting point lay within 223 to 226 °C.

In general, melting point refers to the temperature, or range, at which the solid turns liquid.
